Laboratory results as given in the NIST ThermoML archive (doi:10.1007/s10765-010-0742-8).
Values joined by “and” are separate entries in the source; they are usually repeats but may differ in a detail not shown here. Identical values can stand only once.

Experiments:
[1] = mn = molality of the nth substance listed, in mol/kg; conditions: 101 kPa, Liquid, m1 = 0.1; for viscosity: Capillary tube (Ostwald / Ubbelohde) method; for mass density: Pycnometric method
[2] = refractive index (Na D-line) (dimensionless); mn = molality of the nth substance listed, in mol/kg; conditions: 101 kPa, Liquid, Standard Abbe refractometry, m1 = 0.1

O=C[C@H](O)[C@@H](O)[C@@H](O)[C@H](O)CO [(+)-galactose] + O
Conditions | mass density, [1] | refractive index, [2] | viscosity, [1] [mPa·s]
298.15 K | 1003.9 kg/m3 | 1.3345 | 0.9284
303.15 K | 1002.3 kg/m3 and 1002.4 kg/m3 | 1.334 and 1.3339 | 0.8345
308.15 K | 1001 kg/m3 | 1.3335 | 0.7518
313.15 K | 999.5 kg/m3 | 1.3329 | 0.6858
